Assay: mn = molality of the nth substance listed, in mol/kg
Settings: Liquid, Capillary tube (Ostwald / Ubbelohde) method

O=[N+]([O-])[O-].O=[N+]([O-])[O-].[Ni+2] [nickel(II) nitrate] + O
viscosity [mPa·s]
Settings	100 kPa	10000 kPa	20000 kPa	30000 kPa
297.86 K, m1 = 1.824	1.671	1.672	1.672	1.673
297.86 K, m1 = 2.246	1.973	1.973	1.974	1.974
297.98 K, m1 = 0.608	1.078	1.077	1.077	1.078
298.43 K, m1 = 0.218	0.9454	0.9468	0.9471	0.9482
298.64 K, m1 = 0.951	1.193	1.194	1.194	1.194
298.65 K, m1 = 0.153	0.9231	0.9246	0.9251	0.9261
298.65 K, m1 = 0.288	0.9601	0.9606	0.961	0.962
299.24 K, m1 = 0.05	0.884	0.8839	0.8843	0.8845
299.76 K, m1 = 1.368	1.348	1.348	1.349	1.35
309.84 K, m1 = 2.246	1.537	1.539	1.542	1.545
321.54 K, m1 = 0.05	0.5771	0.579	0.5797	0.582
322.46 K, m1 = 2.246	1.225	1.231	1.236	1.241
322.56 K, m1 = 0.153	0.5821	0.5872	0.592	0.5938
322.56 K, m1 = 0.288	0.6103	0.6122	0.613	0.6145
323.46 K, m1 = 0.608	0.6691	0.6724	0.6754	0.6781
323.67 K, m1 = 0.951	0.7503	0.7533	0.7564	0.7595
323.74 K, m1 = 0.218	0.5854	0.5895	0.5944	0.5968
324.76 K, m1 = 1.824	1.026	1.031	1.036	1.04
326.78 K, m1 = 1.368	0.8295	0.8341	0.8376	0.8422
330.84 K, m1 = 2.246	1.072	1.078	1.082	1.089
338.46 K, m1 = 1.368	0.703	0.7074	0.7123	0.7174
347.43 K, m1 = 0.288	0.4289	0.4346	0.4376	0.4422
347.65 K, m1 = 0.05	0.3939	0.3949	0.3964	0.4013
347.82 K, m1 = 2.246	0.843	0.8486	0.8534	0.8621
347.94 K, m1 = 0.218	0.4152	0.4194	0.4228	0.426
348.89 K, m1 = 0.153	0.401	0.4057	0.4091	0.4122
349.46 K, m1 = 0.951	0.5292	0.5331	0.5374	0.5411
349.76 K, m1 = 0.608	0.4664	0.4708	0.4742	0.4779
349.76 K, m1 = 1.368	0.6103	0.6146	0.6194	0.6253
349.76 K, m1 = 1.824	0.722	0.728	0.7335	0.738
364.21 K, m1 = 2.246	0.6918	0.698	0.705	0.7104
372.46 K, m1 = 0.153	0.3059	0.3101	0.314	0.3166
372.48 K, m1 = 0.218	0.3134	0.3179	0.3212	0.3248
372.49 K, m1 = 1.368	–	0.4771	–	–

Source: the NIST ThermoML archive (doi:10.1016/j.jct.2005.04.017)
